From PMC12668289 (RSC Chemical Biology, 2025)
“And” between values parts separate entries of the source, which are not always exact repeats. Equal entries are not always repeated. Where two headings read alike, the source gives them in different places.

Tests used:
[1] = system: Pmluc-N230S; assay: Bioluminescence quantum yield measurement; format: biochemical, Pyrocoelia miyako
Experimental: (§1) 1.5 Bioluminescence characterizations
(§2) Reactions of luciferases, including Photinus pyralis luciferase (Fluc), Phrixothrix hirtus luciferase (SLR), Pyrearinus termitilluminans […]
(§3) mM D-LH 2 analogues, 3 mM ATP, 6 mM MgCl2, and 10 µM luciferase in 0.2 ml of 100 mM HEPES-NaOH pH 8.0. […]
(§4) A reference light source was used for calibrating a sphere spectrometer equipped with a cooled CCD detector.
(§5) The absolute responsivity of each luciferase-luciferin reaction was calculated based on a linear standardization between total photon flux measured using the sphere spectrometer equipped with a cooled CCD detector and relative count values measured by a luminometer. Total photons emitted from the bioluminescence reaction of each luciferase-luciferin pair were measured using a calibrated luminometer. A reaction containing 0.5-5 nM of each luciferin, 3 mM ATP, 3 mM MgCl2 in 100 mM Tris-HCl (total volume of 200 µl) was placed into the luminometer and background signals were recorded. The reaction was then initiated by adding 20 µl of 0.5 […]
(§6) mM purified luciferases into the reaction tube and the bioluminescence signals were monitored until it decayed to the background level.

[2] = system: SLR-expressing HeLa cells; assay: Real-time BL monitoring of live cells
Experimental: plasmids and Lipofectamine 3000 were then combined and incubated for 30 minutes to allow formation of DNA and lipid complexes.
The DNA-lipid complexes were added directly to each well of the empty plate. 1.5 × 10⁵ cells (HepG2 and HeLa cells) were then suspended
in 150 µL of DMEM supplemented with 10% FBS were added directly into the transfection mixture in each well. The plate was gently
agitated to ensure even distribution and incubated at 37°C in a humidified 5% CO₂ incubator. The reporter cells obtained at this stage
were ready for further investigation of their bioluminescence with D-LH2 analogues.
2c), 10% FBS and 25 mM HEPES-NaOH (pH 7.0) was added and the BL signals were monitored with F0 (no filter) and F2 (red filter, >620
nm long-pass filter) by a luminometer (ATTO, Kronos HT, WSL-1563) and while maintaining the cells with 5% CO2 at 37 °C.

[3] = system: SLR; assay: BL emission spectra of luciferase-luciferin reactions; format: biochemical, Phrixothrix hirtus; conditions: 100 mM HEPES pH 8.0, 25 °C
Experimental: as §1, §2
(§7) mM D-LH 2 analogues, 3 mM ATP, 6 mM MgCl2, and 10 µM luciferase in 0.2 ml of 100 mM HEPES-NaOH pH 8.0. The bioluminescence (BL) emission characteristics were recorded using a microplate reader in a BL mode (Thermo Scientific, Varioskan, LUX multimode). […]
sphere-based multichannel spectrometer with a charge-coupled device (CCD) detector. […]

[4] = target: Fluc-ApCPP complex (Photinus pyralis, UniProt P08659); assay: biochemical; format: binding; conditions: ITC; for N site / G (free energy of binding) / H (enthalpy of binding): Fluc-ApCCP; for Kd / G (free energy of binding) / H (enthalpy of binding): 25 °C; for Kd: preformed Fluc-ApCPP complex, read-out: Dissociation constant (Kd) Fluc-ApCPP: Luciferin
Fluc-ApCPP complex, sequence (P08659 whole entry, one chain of several): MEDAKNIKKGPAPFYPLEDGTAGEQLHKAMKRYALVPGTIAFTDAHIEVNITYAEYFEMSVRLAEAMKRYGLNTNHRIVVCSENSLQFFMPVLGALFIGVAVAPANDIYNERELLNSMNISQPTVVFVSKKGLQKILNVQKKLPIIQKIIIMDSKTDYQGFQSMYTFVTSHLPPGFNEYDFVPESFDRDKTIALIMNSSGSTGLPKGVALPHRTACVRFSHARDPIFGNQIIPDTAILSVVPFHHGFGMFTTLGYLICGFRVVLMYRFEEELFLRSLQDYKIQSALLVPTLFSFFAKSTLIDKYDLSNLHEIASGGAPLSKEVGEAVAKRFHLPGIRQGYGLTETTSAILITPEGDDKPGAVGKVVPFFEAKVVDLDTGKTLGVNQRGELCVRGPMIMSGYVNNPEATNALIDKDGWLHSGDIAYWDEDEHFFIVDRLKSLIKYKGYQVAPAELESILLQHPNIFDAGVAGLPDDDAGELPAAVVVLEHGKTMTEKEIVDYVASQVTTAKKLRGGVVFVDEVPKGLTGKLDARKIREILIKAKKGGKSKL

[5] = Absorption and fluorescence spectra of luciferins; format: physicochemical; conditions: 100 mM HEPES pH 8.0, 25 °C
Experimental: 2.6 Spectra of firefly luciferins
spectrophotometer (Agilent technologies, Cary 100 UV Vis, Cary Series UV-Vis Spectrophotometer).
were recorded by a microplate reader (Thermo Scientific, Varioskan, LUX multimode) in fluorescence mode. The reactions of D-LH 2 […]
Supplementary Table S5. […]
[e] ND denotes “not detectable”. […]

[6] = system: SLR (HeLa); assay: Sensitivity of live reporter cell detection (LOD of cell number); format: cell-based, human
[7] = target: T1, Fluc (Photinus pyralis, UniProt P08659); assay: Stopped-flow luminometry, single turnover light formation and decay; format: biochemical
T1 sequence (P08659 whole entry): as the sequence (P08659 whole entry, one chain of several) above
Experimental: 1.5 Bioluminescence characterizations […]
One syringe was filled with a solution of 50 µM Fluc, 3 mM ATP, and 6 mM
in both syringes were mixed by a stopped-flow device and measured the light emission at 25 °C in triplicate. […]
2.8 Investigation of bioluminescence kinetics using stopped-flow luminometry
reactions were investigated using a stopped-flow spectrophotometer (employing a light-off mode for detecting the luminescence). One

[8] = target: T1, Fluc; assay: biochemical; format: binding; conditions: ITC; for G (free energy of binding) / H (enthalpy of binding): 25 °C; for Kd: Table S9
[9] = target: T1, Fluc; assay: Bioluminescence quantum yield measurement; format: biochemical
Experimental: as §1, §2, §3, §4, §5, §6

[10] = system: Pmluc-N230S; assay: Steady-state kinetics of luciferase reactions (luminometer); format: biochemical, Pyrocoelia miyako; design: Substrate inhibition: unit not given here; conditions: for appKm: pH 8.0, 25 °C; for Relative kcat: relative to 2a compound
Experimental: as §1, §2, §7
BL of the
The reactions were initiated by mixing 25 µl of premixed solution of luciferases/D-LH 2 analogues with 125 µl of 3 mM ATP and 6 mM MgCl2 in 100 mM HEPES-NaOH (pH 8.0). The light intensity (relative light unit, RLU) during 0-300 sec was then collected to represent the overall luciferase activity which was further used for calculating kinetic parameters from the Michaelis-Menten equation. […]

Row | Structure (SMILES) | Quantum yield [1] | Bioluminescence wavelength (BLλ) [3] [nm] | N site [4] | Absorption (λmax) [5] [nm] | Fluorescence (λem) [5] | Limit of detection (LOD), cells ([6]; F0 (no filter)) [cells] | Limit of detection (LOD), cells ([6]; F2 (red filter)) [cells] | N site [8] | Quantum yield [9] | appKm ([10]; Pmluc-N230S) [µM] | Time BL signals are prolonged before signal decreasing ([2]; SLR-expressing HeLa, 100 µM) | Kd [4] [µM] | G (free energy of binding) [4] [kcal/mol] | H (enthalpy of binding) [4] [kcal/mol] | Observed rate constant (kobs) Light decay Faster phase ([7]; Fluc single turnover, 25 °C) | Observed rate constant (kobs) Light decay Slower phase ([7]; Fluc single turnover, 25 °C) | Observed rate constant (kobs) Light formation ([7]; Fluc single turnover, 25 °C) | G (free energy of binding) [8] [kcal/mol] | H (enthalpy of binding) [8] [kcal/mol] | Kd [8] [µM] | other results
1 | O=C(O)[C@H]1CSC(c2nc3ccc(O)cc3s2)=N1 [Compound 2a, D-luciferin, reference compound] | 0.16 and 0.160 ± 0.018 | 625 | 0.32 | 327 | 543 nm and 523–560 nm | 1352 | 1268 | 1.00 | 0.44 and 0.44 ± 0.04 | 0.6 |  |  |  |  |  |  |  |  |  |  | Time BL signals are prolonged before signal decreasing [2]: up to 10 h; Observed rate constant (kobs) Light decay Faster phase [7]: 1.57 and 1.57 ± 0.02 s^−1; Observed rate constant (kobs) Light decay Slower phase [7]: 0.29 and 0.29 ± 0.00 s^−1; Observed rate constant (kobs) Light formation [7]: 6.64 and 6.64 ± 0.05 s^−1
2 | Cc1cc2nc(C3=N[C@@H](C(=O)O)CS3)sc2cc1O [Compound 2b, 5’-methyl-D-luciferin] | 0.17 and 0.170 ± 0.034 | 626 | 0.33 | 323 | 523 nm and 523–560 nm | 973 | 826 | 0.70 | 0.52 and 0.52 ± 0.01 | 1.8 | up to 10 h | 4 ± 0.02 | -7.60 | -4.60 | 1.55 s⁻¹ and 1.55 ± 0.15 s⁻¹ | 0.27 s⁻¹ and 0.27 ± 0.00 s⁻¹ | 9.63 s⁻¹ and 9.63 ± 0.04 s⁻¹ | -6.70 | -1.83 | 13.4 | Relative kcat (BL intensity), fold of 2a ([10]; Pmluc N230S, compared to 2a): 5.2 fold; Substrate inhibition ([10]; Pmluc-N230S, concentration range tested 0-300): > 4.0; Relative kcat ([10]; Pmluc-N230S): 518.5
3 | Cc1cc2nc(C3=N[C@@H](C(=O)O)CS3)sc2c(C)c1O [Compound 2c, 5’,7’-di-methyl-D-luciferin] | 0.15 and 0.150 ± 0.014 | 634 | 3.34 | 334 | 560 nm and 523–560 nm | 1437 | 707 | 0.80 | 0.20 and 0.200 ± 0.007 | 2.6 | up to 18 h | 25.3 ± 1.1 | -6.01 | -4.85 | 0.27 s⁻¹ and 0.27 ± 0.00 s⁻¹ | 0.05 s⁻¹ and 0.05 ± 0.00 s⁻¹ | 7.28 s⁻¹ and 7.28 ± 0.02 s⁻¹ | -6.08 | -3.20 | 35.1 | kobs of light decay (faster and slower phases) slower than those of 2a and 2b ([7]; Fluc): 5–6 fold; Relative kcat ([10]; Pmluc-N230S): 48.1
